Like-named read-outs stand apart in the source and are kept apart here. A value given as a limit tells only on which side of the number the result lay.

Type in all cases: in vivo
In one series the test system is Diamondback moth. As to the kind of experiment: Insecticidal activity against Diamondback moth, Airbrush spray on cabbage leaf discs. To be noted: Plutella xylostella, foliar, 72 h; for mortality at 10 µg/mL: 10 mg/L, read-out: Mortality rate (%, 3 days after the administration) 10 mg/L; for mortality at 1.25 µg/mL: 1.25 mg/L, 3rd-instar larvae, read-out: mortality rate against Diamondback moth; for mortality at 0.156 µg/mL: read-out: Mortality rate (%, 3 days after the administration) 0.156 mg/L; for mortality at 0.313 µg/mL: read-out: Mortality rate (%, 3 days after the administration) 0.313 mg/L. As for the experimental part: (§1) After the compound to be determined was dissolved in a mixed solvent of acetone/methanol (1:1), it was diluted with water containing 0.1% (wt) Tween-80 to a desired concentration.
(§2) Mythimna separata, Diamondback moth, Chilo suppressalis, Spodoptera exigua, Myzus persicae, and Franklinella occidentalis were used as targets, and the activity was tested by an Airbrush spray method.
Determination method: cabbage leaves were formed into leaf discs having a diameter of 2 cm using a puncher, and the front and back of each leaf disc were sprayed under an Airbrush spray treatment pressure of 10 psi (approximate to 0.7 kg/cm^2) and with a spray volume of 0.5 mL. After drying in the shade, 10 3rd-instar larvae were inoculated for each treatment, and each treatment was repeated for 3 times. After the treatment, the leaf discs were placed into an observation chamber at 25° C. and with a relative humidity of 60% to 70%, and the number of living larvae was investigated 3 days after the administration of the compounds, and the mortality rates were calculated.

Another series deals with Mythimna separata. As to the kind of experiment: Insecticidal activity against Mythimna separata, Airbrush spray on maize leaf pieces. Particulars: 72 h, 0.05 mg/L, 3 days after the administration, 3rd-instar larvae, read-out: mortality rate against Mythimna separata. The protocol:
as §1, §2
Determination method: maize leaves were cut into 2 cm leaf pieces, and the front and back of each leaf piece were sprayed under an Airbrush spray treatment pressure of 10 psi (approximate to 0.7 kg/cm^2) and with a spray volume of 0.5 mL. After drying in the shade, 10 3rd-instar larvae were inoculated for each treatment, and each treatment was repeated for 3 times. After the treatment, the leaf pieces were put into an observation chamber at 25° C. and with a relative humidity of 60% to 70%, and the number of living larvae was investigated 3 days after the administration of the compounds, and the mortality rates were calculated.

The next series concerns Chilo suppressalis. In words: Insecticidal activity against Chilo suppressalis, sprayed rice stems. Particulars: 72 h, 0.625 mg/L, 3 days after the administration, 3rd-instar larvae, read-out: mortality rate against Chilo suppressalis. The protocol: as §1, §2
Determination method: 1) Preparation of rice seedlings: rice was cultured in a plastic small cup with a diameter of 4.5 cm and a height of 4 cm in a constant temperature room (the temperature was 26-28° C., the relative humidity was about 60-80%, and the illumination was 16hL:8hD), when the rice grown to a 4-5 leaf stage, robust and uniformly grown rice seedlings were selected for pharmaceutical treatment, and 3 replicates were set for each treatment. 2) Preparation of test insects: 3rd-instar larvae of Chilo suppressalis were continuously reared indoors. 3) Rice stems were sprayed and insects were introduced. A spray method was used to treat whole rice seedlings with uniform spray, and each treatment was 15 mL. Blank controls were treated firstly, and then the above operation was repeated in an order of experimental concentrations from low to high. After the spray treatment of the rice seedlings, they were placed in the shade to air-dry drug liquid, about 5 cm of the stem from a basal part of the stem was cut and fed to the test insects. A glass culture dish with a diameter of 90 mm was prepared, filter paper was placed on the bottom of the dish, then water was added to moisturize. About 5 rice stems were placed in each dish, 10 larvae were introduced, and the culture dish was closed with non-woven fabric and placed in the constant-temperature room for culture. 3 days after the administration, the number of residual live insects was investigated.

A further series deals with Spodoptera exigua. In words: Insecticidal activity against Spodoptera exigua, leaf disc dipping feeding method. To be noted: foliar, 72 h, 0.625 mg/L, 3 days after the administration, read-out: mortality rate against Spodoptera exigua. The protocol: After the compound to be determined was dissolved in a mixed solvent of acetone/methanol (1:1), it was diluted with water containing 0.1% (wt) Tween-80 to a desired concentration. […]
Determination method: the activity was tested by using a leaf disc dipping feeding method. Leaf discs were dipped in a drug solution for 10 s, and placed in a culture dish after being air-dried, there were 4 discs in each dish, and a filter paper was placed in the culture dish for moisture retention. 10 test insects of Spodoptera exigua were introduced to each dish, with 3 replicates.
They were placed in a light incubator for culture at a temperature of 25° C. and an illumination of 14hL:10hD. On the 1st, 2nd, and 3rd day after the administration, the number of dead Spodoptera exigua was investigated and the mortality rate was calculated.

A further series relates to Myzus persicae. As to the kind of experiment: Insecticidal activity against Myzus persicae, Airbrush spray on cabbage leaves. To be noted: 50 mg/L, after 48 h, read-out: mortality rate against Myzus persicae. As for the experimental part: as §1, §2
Determination method: a culture dish with a diameter of 6 cm was taken, the bottom of the dish was covered by a layer of filter paper, and an appropriate amount of tap water was added to moisturize the paper. Cabbage leaves with an appropriate size (the diameter was about 3 cm) and 15-30 aphids grown were cut from cabbage plants used to culture Myzus persicae, winged aphids and aphids on the front of the leave were removed, and it was placed in the culture dish while the back of the leave was upward. The pressure of airbrush spray treatment was 10 psi (about 0.7 kg/cm^2), the liquid spray volume was 0.5 mL, and there were 3 replicates for each treatment. After the treatment, the leave was put into an observation room for culture at 25° C. and a relative humidity of 60-70%. After 48 h, the number of live insects was investigated and the mortality rate was calculated.

The next series relates to cat flea. As to the kind of experiment: Insecticidal experiment on cat flea, thin film in culture dish. Particulars: Ctenocephalides felis, 72 h, read-out: mortality rate, cat flea. The protocol:
4 mg of the compound to be determined was dissolved in 40 mL of acetone to obtain an acetone solution with a concentration of 100 mg/L. 400 μL of the drug solution was applied on the bottom and sides of a culture dish with an inner diameter of 5.3 cm, then after acetone was evaporated, a thin film of the compound of the present invention was made on the inner wall of the culture dish. The inner wall of the culture dish used was 40 cm^2, and the treatment dosage was 1 μg/cm^2. 10 adult cat fleas (mixed male and female) were put into the dish, and it was stored in a constant-temperature room at 25° C. after being covered. The number of dead insects after 72 h was checked and the mortality rate was calculated. The experiment was repeated for 3 times.

Series [1] deals with Franklinella occidentalis. In words: Insecticidal activity against Franklinella occidentalis nymphs, sprayed bean leaves. As for the experimental part:
as §1, §2
Determination method: fresh bean leaves cultivated in a greenhouse were selected, a hand-held Airbrush sprayer was used to spray uniformly, each treatment was 1 mL, and after being air-dried naturally, the leaves were placed in a finger-shaped tube. Neat and healthy Franklinella occidentalis nymphs were introduced, there were 15 nymphs for each treatment, 3 replicates were set for the experiment, and water treatment was set as a blank control. After the treatment, the leaves were put into an indoor culture room for culture at 24° C., a relative humidity of 60-70%, and natural light. After 72 h, the number of live insects was investigated and the mortality rate was calculated.

The mark [2] stands for this setting: 3 days after the administration, Diamondback moth.
[3] abbreviates: 3 days after the administration.
[4] abbreviates: 0.156 mg/L, 3 days after the administration, Diamondback moth.
The mark [5] stands for this setting: 0.313 mg/L, 3 days after the administration, Diamondback moth.

For `C#CCN(C(=O)c1ccccc1)c1cccc(C(=O)Nc2c(C)cc(C(F)(C(F)(F)F)C(F)(F)F)cc2C)c1` [KC2, reference compound], in the series with Diamondback moth (setting [2]), the mortality at 10 µg/mL worked out at 0%.

For `C#CCN(C(=O)c1ccccc1)c1cccc(C(=O)Nc2c(C)cc(C(F)(C(F)(F)F)C(F)(F)F)cc2C)c1F` [KC10, reference compound], the mortality at 10 µg/mL with Diamondback moth (setting [2]) was determined as 100%.

In the case of `C#CCN(C(=O)c1ccc(C#N)cc1)c1cccc(C(=O)Nc2c(I)cc(C(F)(C(F)(F)F)C(F)(F)F)cc2C(F)(F)F)c1F` [Compound 40], the mortality at 0.05 µg/mL in the series on Mythimna separata was greater than 90%. The mortality at 1.25 µg/mL with Diamondback moth (setting [3]) was greater than 90%. Also, the mortality at 10 µg/mL with Diamondback moth (setting [2]) came out at 100%. The mortality at 0.625 µg/mL in the series with Chilo suppressalis and with Spodoptera exigua was greater than 90% throughout. Also, the mortality at 50 µg/mL with Myzus persicae is greater than 90%. For the same compound, the mortality at 1 µg/cm2 in the series with cat flea is greater than 90%.

With `C#CCN(C(=O)c1ccc(C(F)(F)F)nc1)c1cccc(C(=O)Nc2c(I)cc(C(F)(C(F)(F)F)C(F)(F)F)cc2C(F)(F)F)c1F` [Compound 56], the mortality at 0.05 µg/mL with Mythimna separata is greater than 90%. In the series on Diamondback moth (setting [3]), the mortality at 1.25 µg/mL is greater than 90%. Also, in the series on Diamondback moth (setting [2]), the mortality at 10 µg/mL amounted to 100%. Also, the mortality at 0.625 µg/mL with Chilo suppressalis and in the series with Spodoptera exigua was greater than 90% each time. The mortality at 50 µg/mL with Myzus persicae was greater than 90%. Besides, the mortality at 1 µg/cm2 in the series with cat flea was greater than 90%.

`C#CCN(C(=O)c1ccccc1)c1cccc(C(=O)Nc2c(I)cc(C(F)(C(F)(F)F)C(F)(F)F)cc2C(F)(F)F)c1F` [Compound 32]: the mortality at 0.05 µg/mL in the series on Mythimna separata is greater than 90%. Further, in the series with Diamondback moth (setting [3]), the mortality at 1.25 µg/mL was greater than 90%. In addition, the mortality at 10 µg/mL in the series on Diamondback moth (setting [2]) came out at 100%. Besides, the mortality at 0.625 µg/mL in the series with Chilo suppressalis and in the series with Spodoptera exigua was greater than 90% throughout. In addition, in the series with Myzus persicae, the mortality at 50 µg/mL was greater than 90%. In the series on cat flea, the mortality at 1 µg/cm2 was greater than 90%.

With `C#CCN(C(=O)c1ccc(C#N)nc1)c1cccc(C(=O)Nc2c(Br)cc(C(F)(C(F)(F)F)C(F)(F)F)cc2C(F)(F)F)c1F` [Compound 51], in the series with Mythimna separata, the mortality at 0.05 µg/mL was greater than 90%. For the same compound, the mortality at 1.25 µg/mL in the series with Diamondback moth (setting [3]) is greater than 90%. For the same compound, the mortality at 10 µg/mL in the series with Diamondback moth (setting [2]) was determined as 100%. Besides, the mortality at 0.625 µg/mL with Chilo suppressalis and with Spodoptera exigua was greater than 90% in each case. In addition, the mortality at 50 µg/mL in the series on Myzus persicae was greater than 90%. In the series on cat flea, the mortality at 1 µg/cm2 was greater than 90%.

In the case of `CN(C(=O)c1ccc(F)cc1)c1cccc(C(=O)Nc2c(I)cc(C(F)(C(F)(F)F)C(F)(F)F)cc2C(F)(F)F)c1F` [KC5, reference compound], the mortality at 0.156 µg/mL in the series on Diamondback moth (setting [4]) is 73.3%. In addition, the mortality at 0.313 µg/mL with Diamondback moth (setting [5]) worked out at 100%. Besides, in series [1], the “Mortality rate (%, 3 days after the administration) 10 mg/L” value was determined as 28.89% and the “Mortality rate (%, 3 days after the administration) 100 mg/L” value is given as 51.11%.

On to `CN(C(=O)c1ccc(F)cc1)c1cccc(C(=O)Nc2c(Br)cc(C(F)(C(F)(F)F)C(F)(F)F)cc2C(F)(F)F)c1F` [KC4, reference compound], for which the mortality at 0.156 µg/mL in the series on Diamondback moth (setting [4]) came out at 60%. Also, the mortality at 0.313 µg/mL with Diamondback moth (setting [5]) is 100%. Besides, in series [1], the “Mortality rate (%, 3 days after the administration) 10 mg/L” value is listed as 40.00% and the “Mortality rate (%, 3 days after the administration) 100 mg/L” value came out at 62.22%.

Consider `C=CCN(C(=O)c1ccccc1)c1cccc(C(=O)Nc2c(C)cc(C(F)(C(F)(F)F)C(F)(F)F)cc2C)c1F` [KC9, reference compound], for which the mortality at 10 µg/mL with Diamondback moth (setting [2]) was 100%.

On to `C=CCN(C(=O)c1ccccc1)c1cccc(C(=O)Nc2c(C)cc(C(F)(C(F)(F)F)C(F)(F)F)cc2C)c1` [KC1, reference compound], for which the mortality at 10 µg/mL in the series with Diamondback moth (setting [2]) was 0%.

As to `CN(C(=O)c1ccc(F)nc1)c1cccc(C(=O)Nc2c(Br)cc(C(F)(C(F)(F)F)C(F)(F)F)cc2C(F)(F)F)c1F` [KC7, reference compound], the mortality at 0.156 µg/mL in the series on Diamondback moth (setting [4]) was 56.7%. Further, the mortality at 0.313 µg/mL with Diamondback moth (setting [5]) is 100%. For the same compound, in series [1], the “Mortality rate (%, 3 days after the administration) 10 mg/L” value was 53.33% and the “Mortality rate (%, 3 days after the administration) 100 mg/L” value turned out to be 80.00%.

With `O=C(Nc1cccc(C(=O)Nc2c(I)cc(C(F)(C(F)(F)F)C(F)(F)F)cc2C(F)(F)F)c1F)c1ccc(F)nc1` [KC6, reference compound], in the series on Diamondback moth, the mortality at 0.156 µg/mL was determined as 46.7% and the mortality at 0.313 µg/mL is 90%. In series [1], the “Mortality rate (%, 3 days after the administration) 10 mg/L” value stood at 57.78% and the “Mortality rate (%, 3 days after the administration) 100 mg/L” value is reported as 77.78%.

With `CN(C(=O)c1ccccc1)c1cccc(C(=O)Nc2c(Br)cc(C(F)(C(F)(F)F)C(F)(F)F)cc2C(F)(F)F)c1F` [KC3, broflanilide, reference compound], in the series on Diamondback moth, the mortality at 0.156 µg/mL is 50% and the mortality at 0.313 µg/mL turned out to be 93.3%. For the same compound, in series [1], the “Mortality rate (%, 3 days after the administration) 10 mg/L” value is 31.11% and the “Mortality rate (%, 3 days after the administration) 100 mg/L” value came out at 57.78%.

In the case of `CN(C(=O)c1ccc(F)nc1)c1cccc(C(=O)Nc2c(I)cc(C(F)(C(F)(F)F)C(F)(F)F)cc2C(F)(F)F)c1F` [KC8, reference compound], the mortality at 0.156 µg/mL with Diamondback moth (setting [4]) is 53.3%. Also, in the series with Diamondback moth (setting [5]), the mortality at 0.313 µg/mL is 86.7%. Also, in series [1], the “Mortality rate (%, 3 days after the administration) 10 mg/L” value is on record as 53.33% and the “Mortality rate (%, 3 days after the administration) 100 mg/L” value stood at 82.22%.
